The record followed here is PMC12951562, “SH2scan: Mapping SH2 Domain-Ligand Binding Selectivity for Inhibitors and Degraders” (Journal of Medicinal Chemistry, 2026).

The structures appear in SMILES notation. Non-standard residues stand in square brackets, D forms with d. Residues, ends and D or L forms follow the SMILES beside them. pY = N[C@@H](Cc1ccc(OP(=O)(O)O)cc1)C(=O)O

Common to all, as to assay: biochemical
Common to all, as to format: binding

For one assay, the target named is T1, GRB2 (Homo sapiens, UniProt P62993).
T1 construct: the DNA-tagged SH2 domain concentrations used in this study were <0.1 nM; made in house; host or cells: HEK293 (transient transfection; unpurified extract)

Another assay has as its target T2, PTPN11(SH2dom.C-term.) (Homo sapiens, UniProt Q06124).
T2 construct: SH2dom.C-term. denotes SH2 domain closest to C-terminus of protein; made in house; host or cells: HEK293 (transient transfection, unpurified extract)
T2 sequence (Q06124 112-216 limits assumed): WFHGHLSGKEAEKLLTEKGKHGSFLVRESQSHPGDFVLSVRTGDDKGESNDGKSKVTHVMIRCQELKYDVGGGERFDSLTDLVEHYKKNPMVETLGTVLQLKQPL

The target in a further assay is T3, PIK3R2(SH2dom.N-term.) (Homo sapiens, UniProt O00459).
T3 construct: SH2dom.N-term. denotes SH2 domain closest to N-terminus of protein; made in house; host or cells: HEK293 (transient transfection, unpurified extract)

For the next assay, the target named is T4, PIK3R1(SH2dom.N-term.) (Homo sapiens, UniProt P27986).
T4 construct: SH2dom.N-term. denotes SH2 domain closest to N-terminus of protein; made in house; host or cells: HEK293 (transient transfection, unpurified extract)

A further assay concerns the target T5, PIK3R3(SH2dom.N-term.) (Homo sapiens, UniProt Q92569).
T5 construct: SH2dom.N-term. denotes SH2 domain closest to N-terminus of protein; made in house; host or cells: HEK293 (transient transfection, unpurified extract)

The target in a further assay is T6, CBLC (Homo sapiens, UniProt Q9ULV8).
T6 construct: the DNA-tagged SH2 domain concentrations used in this study were <0.1 nM; made in house; host or cells: HEK293 (transient transfection; unpurified extract)
T6 sequence (Q9ULV8 219-321 limits assumed): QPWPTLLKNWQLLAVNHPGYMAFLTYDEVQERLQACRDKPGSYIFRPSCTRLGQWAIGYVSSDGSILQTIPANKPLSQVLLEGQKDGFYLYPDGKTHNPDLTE

The next assay has as its target T7, CBLB (Homo sapiens, UniProt Q13191).
T7 construct: the DNA-tagged SH2 domain concentrations used in this study were <0.1 nM; made in house; host or cells: HEK293 (transient transfection; unpurified extract)

The target of a further assay is T8, BLK (Homo sapiens, UniProt P51451).
T8 construct: the DNA-tagged SH2 domain concentrations used in this study were <0.1 nM; made in house; host or cells: HEK293 (transient transfection; unpurified extract)
Conditions: dose-response; read-out: KD.

The target of a further assay is T9, FYN (Homo sapiens, UniProt P06241).
T9 construct: the DNA-tagged SH2 domain concentrations used in this study were <0.1 nM; made in house; host or cells: HEK293 (transient transfection; unpurified extract)
The following applies: dose-response; read-out: KD.

In a further assay the target is T10, YES (Homo sapiens, UniProt P07947).
T10 construct: the DNA-tagged SH2 domain concentrations used in this study were <0.1 nM; made in house; host or cells: HEK293 (transient transfection; unpurified cell extract)
Conditions: dose-response; read-out: KD.

A further assay concerns the target T11, GRAP (Homo sapiens, UniProt Q13588).
T11 construct: the DNA-tagged SH2 domain concentrations used in this study were <0.1 nM; made in house; host or cells: HEK293 (transient transfection; unpurified extract)

The target of the next assay is T12, SRMS (Homo sapiens, UniProt Q9H3Y6).
T12 construct: made in house; host or cells: HEK293 (transient transfection), unpurified extract

The next assay has as its target T13, PTPN6(SH2dom.N-term.) (Homo sapiens, UniProt P29350).
T13 construct: SH2dom.N-term. denotes SH2 domain closest to N-terminus of protein; made in house; host or cells: HEK293 (transient transfection, unpurified extract)
T13 sequence (P29350 4-100 limits assumed): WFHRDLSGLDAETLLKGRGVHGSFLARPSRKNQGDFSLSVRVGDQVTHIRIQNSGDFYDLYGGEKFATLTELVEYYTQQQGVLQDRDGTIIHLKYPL

T1 sequence (P62993 60-152 limits assumed): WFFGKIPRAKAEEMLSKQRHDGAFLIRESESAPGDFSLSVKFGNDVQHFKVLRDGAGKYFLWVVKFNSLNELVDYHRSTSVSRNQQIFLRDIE
T7 sequence (Q13191 241-343 limits assumed): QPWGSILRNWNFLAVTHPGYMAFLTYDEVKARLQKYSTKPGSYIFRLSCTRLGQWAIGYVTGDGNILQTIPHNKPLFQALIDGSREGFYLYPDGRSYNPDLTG
T10 sequence (P07947 158-255 limits assumed): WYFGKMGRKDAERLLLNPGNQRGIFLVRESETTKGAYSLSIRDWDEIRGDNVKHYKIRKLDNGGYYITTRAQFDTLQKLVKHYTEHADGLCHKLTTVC
T4 sequence (P27986 333-428 limits assumed): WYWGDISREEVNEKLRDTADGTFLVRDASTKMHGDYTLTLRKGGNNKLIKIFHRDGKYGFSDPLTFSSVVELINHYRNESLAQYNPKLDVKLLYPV
T8 sequence (P51451 124-220 limits assumed): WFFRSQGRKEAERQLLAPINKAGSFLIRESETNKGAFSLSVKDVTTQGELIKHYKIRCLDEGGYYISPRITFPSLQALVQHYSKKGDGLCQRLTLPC
T3 sequence (O00459 330-425 limits assumed): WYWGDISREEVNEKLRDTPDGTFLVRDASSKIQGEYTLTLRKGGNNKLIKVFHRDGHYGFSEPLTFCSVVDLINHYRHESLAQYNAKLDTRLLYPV
T12 sequence (Q9H3Y6 whole entry): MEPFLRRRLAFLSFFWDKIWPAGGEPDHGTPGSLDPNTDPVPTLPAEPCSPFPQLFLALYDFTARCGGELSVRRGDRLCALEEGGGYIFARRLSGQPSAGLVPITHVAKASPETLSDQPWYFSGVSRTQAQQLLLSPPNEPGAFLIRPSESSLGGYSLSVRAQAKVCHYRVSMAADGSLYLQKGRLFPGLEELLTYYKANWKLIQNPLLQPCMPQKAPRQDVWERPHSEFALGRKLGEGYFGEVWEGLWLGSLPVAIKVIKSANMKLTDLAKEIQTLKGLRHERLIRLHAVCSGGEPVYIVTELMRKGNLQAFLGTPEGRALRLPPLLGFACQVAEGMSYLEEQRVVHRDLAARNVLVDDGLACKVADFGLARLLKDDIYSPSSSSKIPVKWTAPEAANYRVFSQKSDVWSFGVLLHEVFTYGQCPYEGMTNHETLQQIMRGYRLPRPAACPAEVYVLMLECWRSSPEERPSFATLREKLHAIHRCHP
T11 sequence (Q13588 60-154 limits assumed): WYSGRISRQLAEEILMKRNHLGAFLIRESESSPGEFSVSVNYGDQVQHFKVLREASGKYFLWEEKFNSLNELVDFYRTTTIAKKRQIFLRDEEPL
T9 sequence (P06241 149-246 limits assumed): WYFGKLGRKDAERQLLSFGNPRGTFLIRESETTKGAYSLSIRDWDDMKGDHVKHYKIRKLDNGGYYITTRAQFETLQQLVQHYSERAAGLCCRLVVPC

For orientation: Kd means the concentration at which binding is half-saturated. In turn, `CC[C@H](C)[C@H](NC(=O)[C@H](Cc1ccc(OP(=O)(O)O)cc1)NC(=O)[C@H](CO)NC(C)=O)C(=O)N[C@@H](CC(N)=O)C(=O)N[C@H](C(=O)N1CCC[C@H]1C(=O)N[C@@H](Cc1ccccc1)C(=O)N[C@H](C(=O)N[C@@H](CO)C(N)=O)[C@@H](C)O)C(C)C` (Ac-S[pY]INVPFTS-NH2) returned a Kd on GRB2 of 69.4 ± 19.4 nM.

On to `CC[C@H](C)[C@H](NC(=O)[C@@H](NC(=O)[C@H](C)NC(=O)[C@H](Cc1ccc(OP(=O)(O)O)cc1)NC(=O)[C@@H](NC(=O)[C@@H]1CCCN1C(=O)[C@H](CCC(=O)O)NC(=O)[C@@H]1CCCN1C(=O)[C@H](CO)NC(=O)[C@H](C)NC(C)=O)[C@@H](C)CC)[C@@H](C)O)C(=O)N[C@@H](CC(=O)O)C(=O)N[C@@H](Cc1ccccc1)C(=O)N[C@@H](CC(=O)O)C(N)=O` [Ac-ASPEPIpYATIDFD-NH2], for which, on PTPN11(SH2dom.C-term.), the Kd amounted to 403 ± 198 nM.

Take `CSCC[C@H](NC(=O)[C@H](CC(=O)O)NC(=O)[C@H](CC(C)C)NC(=O)[C@H](CCSC)NC(=O)[C@@H]1CCCN1C(=O)[C@@H](NC(=O)[C@H](Cc1ccc(OP(=O)(O)O)cc1)NC(=O)[C@H](CC(=O)O)NC(=O)[C@@H](NC(=O)[C@H](CO)NC(=O)[C@H](CCC(=O)O)NC(=O)[C@H](CC(=O)O)NC(=O)[C@H](CCCCN)NC(=O)[C@H](CO)NC(=O)[C@H](CCSC)NC(=O)[C@H](CC(=O)O)NC(C)=O)C(C)C)C(C)C)C(=O)N[C@@H](CCCCN)C(N)=O` (Ac-DMSKDESVD[pY]VPMLDMK-NH2): the figures for the Kd on PIK3R2(SH2dom.N-term.), on PIK3R1(SH2dom.N-term.) and at PIK3R3(SH2dom.N-term.) were 46.7 ± 6.22 nM, 41.2 ± 9.77 nM and 78.5 ± 26.1 nM, respectively.

With `CC(=O)N[C@@H](CCC(=O)O)C(=O)N[C@@H](CC(=O)O)C(=O)N[C@@H](CO)C(=O)N[C@@H](Cc1ccccc1)C(=O)N[C@@H](CC(C)C)C(=O)N[C@@H](CCC(N)=O)C(=O)N[C@@H](CCCNC(=N)N)C(=O)N[C@@H](Cc1ccc(OP(=O)(O)O)cc1)C(=O)N[C@@H](CO)C(=O)N[C@@H](CO)C(=O)N[C@@H](CC(=O)O)C(=O)N1CCC[C@H]1C(=O)N[C@H](C(N)=O)[C@@H](C)O` [Ac-EDSFLQRpYSSDPT-NH2], the dissociation constant (Kd) is 146 ± 52 nM on CBLC and 373 ± 114 nM at CBLB.

As to `CC[C@H](C)[C@H](NC(=O)[C@@H]1CCCN1C(=O)[C@@H](NC(=O)[C@H](CCC(=O)O)NC(=O)[C@H](CCC(=O)O)NC(=O)[C@H](Cc1ccc(OP(=O)(O)O)cc1)NC(=O)[C@H](CCC(N)=O)NC(=O)[C@@H]1CCCN1C(=O)[C@H](CCC(=O)O)NC(C)=O)[C@@H](C)CC)C(=O)N[C@@H](Cc1ccc(O)cc1)C(=O)N[C@@H](CC(C)C)C(=O)N[C@@H](CCCCN)C(N)=O` (Ac-EPQ[pY]EEIPIYLK-NH2), the Kd came out at 488 ± 188 nM on BLK, 31.8 ± 2.15 nM at FYN and 234 ± 37.6 nM on YES.

As to `CC(=O)N[C@@H](CCCCN)C(=O)N1CCC[C@H]1C(=O)N[C@@H](Cc1ccccc1)C(=O)N[C@@H](Cc1ccc(OP(=O)(O)O)cc1)C(=O)N[C@H](C(=O)N[C@@H](CC(N)=O)C(=O)N[C@H](C(=O)N[C@@H](CCC(=O)O)C(=O)N[C@@H](Cc1ccccc1)C(N)=O)C(C)C)C(C)C` [Ac-KPFpYVNVEF-NH2] (Ac-KPF[pY]VNVEF-NH2), the figures for the Kd at GRAP and at SRMS were 21.3 ± 4.83 nM and 23600 ± 3030 nM, respectively.

With `CC(=O)N[C@@H](CCC(=O)O)C(=O)N[C@@H](CCC(N)=O)C(=O)N[C@@H](CC(=O)O)C(=O)N1CCC[C@H]1C(=O)N[C@@H](CCC(N)=O)C(=O)N[C@@H](CCC(=O)O)C(=O)N[C@H](C(=O)N[C@H](C(=O)N[C@@H](Cc1ccc(OP(=O)(O)O)cc1)C(=O)N[C@@H](C)C(=O)N[C@@H](CCC(N)=O)C(=O)N[C@@H](CC(C)C)C(=O)N[C@@H](CC(N)=O)C(=O)N[C@@H](Cc1c[nH]cn1)C(N)=O)[C@@H](C)O)C(C)C` (Ac-EQDPQEVT[pY]AQLNH-NH2), the Kd at PTPN6(SH2dom.N-term.) was determined as 3860 ± 864 nM.
